In patent publication EP0982027A1, “Taxoid derivatives for treating abnormal cell proliferation of the brain” (RHONE-POULENC RORER S.A., priority 1998, dated 2000):
Several values for one entry are separate records, joined by “and”; a condition that tells them apart may be missing. Equal values may be shown once. Read-outs that look alike come from different tables or passages of the source.

Test: in vivo
Design: species or system female C3H/HeN mice
Conditions: mouse, 40 mg.kg^-1 i.v.; for AUC0-∞: mean level data
Method: Groups of female C3H/HeN mice received the product by the intravenous route as a bolus at a dose level of 40 mg.kg^-1 equivalent to 120 mg.m^-2. Blood and brain samples were obtained from all dosed animals sacrificed at intervals up to 72 hours post dose. Brain and corresponding plasma samples have been assayed for product Ia content by an LC-MS/MS assay.
• Formulation: 2.25 mg.ml^-1 solution containing 5 % Polysorbate 80, 5 % ethanol and 90 % of an aqueous 5 % glucose solution. […]
• Sampling : Blood by cardiac puncture and liver and brain by dissection after CO2 sacrifice • Sample Times : at 2, 5, 15, 30, 45 minutes, 1, 2, 4, 6, 8, 14, 24, 48 and 72 hours post dose.
Whole blood was collected into heparinised tubes and corresponding plasma samples were obtained by centrifugation and frozen immediately at -20°C. Tissues were blotted, weighed and frozen immediately at -20°C. All samples were dispatched frozen for analysis. Upon receipt, samples were stored frozen at approximately -18°C pending analysis.
• Detection: LC-MS/MS (Sciex API III plus) in turbo-ionspray mode
The following MS conditions were applied:
Column: 75 x 4.6 mm Supelcosil ABZ plus (3 µm). Mobile phase: Acetonitrile/methanol/ammonium acetate (10mM); 40/25/35 v/v/v. Flow rate : 1 ml.min^-1. Temperature : Ambient. Extraction : Plasma: Add 100 µl of acetonitrile to sample (50 µl). Vortex, centrifuge, remove supernatant, add 100 µl of mobile phase and inject 150 µl. Brain : Add 100 µl of acetonitrile to homogenised sample (100 mg of a 1:1 w/w brain with water homogenate) and vortex. Add 1ml of diethyl ether, vortex, centrifuge, remove organic layer and dry under N2. Reconstitute in 200 µl of mobile phase and inject 150 µl. Calibration standards: Plasma : Nine at concentrations of 5, 10, 20, 50, 100, 200, 300, 400 & 500 ng.ml^-1 (product Ia). Prepared by adding suitable aliquots of the product (concentrations = 0.1, 1 or 10 µg.ml^-1) in ethanol to 0.5 ml aliquots of mouse plasma. Each sample was vortexed following drug addition; a 50 µl aliquot was then removed for assay. Brain : Eleven at concentrations of 10, 20, 30, 100, 200, 300, 400, 500, 1000, 2500 & 5000 ng.g^-1 in homogenised mouse brain (1:1 w/w brain with water). Prepared by adding suitable aliquots of the product (concentrations = 1, 10 or 100 µg.ml^-1) in ethanol to 0.5, 1, 3 or 4 g of homogenised mouse brain. Each sample was vortexed following drug addition and a 100 mg aliquot was then removed for assay. Retention times: Drug; product Ia: ∼2.3 min. Extraction efficiency : Plasma : ca.58 % at 200 ng.ml^-1. Brain : ca.41 % at 500 ng.g^-1 and 39 % at 1000 ng.g^-1.
A biexponential equation was fitted to the profiles using an interactive linear least-square algorithm as part of the SIPHAR package.
AUC0-∞: Area under the plasma or brain concentration versus time curve from t=0 (start of infusion) to infinity. Initial T1/2: Initial (distribution) half-life. Terminal T1/2: Terminal (elimination) half-life (should be regarded as an estimate only being dependent on sampling frequency in the terminal phase and assay sensitivity). ClT: Total plasma clearance. Vdss: Volume of distribution at steady state. n.a.: Not applicable.

For `CO[C@H]1C(=O)[C@]2(C)[C@@H](OC)C[C@H]3OC[C@@]3(OC(C)=O)[C@H]2[C@H](OC(=O)c2ccccc2)[C@]2(O)C[C@H](OC(=O)[C@H](O)[C@@H](NC(=O)OC(C)(C)C)c3ccccc3)C(C)=C1C2(C)C` [product Ia, 4α-acetoxy-2α-benzoyloxy-5β,20-epoxy-1β-hydroxy-7β,10β-dimethoxy-9-oxo-11-taxen-13α-yl (2R,3S)-3 tert-butoxycarbonylamino-2-hydroxy-3-phenylpropionate], the “AUC0-∞” value (Brain, extrapolated from 72h to infinity) was 788 h.µg.g^-1 and 787.8* h.µg.g^-1, the ClT (Plasma#, calculated from values ≥ b.l.q. of 20 ng.ml^-1) was 21.7 mL/min/kg and the ClT (Plasma+, calculated from values ≥ l.o.d. of 4 ng.ml^-1) was 21.7 mL/min/kg. The “AUC0-∞” value (Plasma+, calculated from values ≥ l.o.d. of 4 ng.ml^-1, listed as product Ic, 40 mg/kg) was 30.0 µg·h/mL, the Cmax at 14 h (brain, iv, at 14h, read-out: brain peak levels) was 9100 ng/g and the half-life (iv, Brain, read-out: Terminal T1/2 (converted)) was 31.4 h. The clearance (iv, Plasma+, calculated from values ≥ l.o.d. of 4 ng.ml^-1, read-out: ClT (converted)) was 21.7 mL/min/kg, the “time post dose up to which plasma levels were consistently above the limit of detection” value (limit 4 ng.ml^-1) was “up to 24 h” and the “time post dose up to which plasma levels persisted above the limit of accurate quantification” value (limit 20 ng.ml^-1) was “up to 14 h”. For the same molecule, the “Plasma product Ic concentration” value (2 min after dose, individual animals IV1-IV4, 40 mg/kg, 2 min) was 45942 ng/mL and 49607 ng/mL and 38994 ng/mL, the “Brain product Ic concentration” value (2 min after dose, individual animals IV1-IV4, listed as product Ic, 40 mg/kg, 2 min) was 8817 ng/g and 8147 ng/g and 7630 ng/g and the “Plasma product Ic concentration” value (5 min after dose, individual animals IV1-IV4, 40 mg/kg, 5 min) was 33538 ng/mL and 32077 ng/mL and 34903 ng/mL. For the same molecule, the “Brain product Ic concentration” value (5 min after dose, individual animals IV1-IV4, listed as product Ic, 40 mg/kg, 5 min) was 8473 ng/g and 7762 ng/g and 8091 ng/g, the “Plasma product Ic concentration” value (15 min after dose, individual animals IV1-IV4, 40 mg/kg, 15 min) was 20897 ng/mL and 21051 ng/mL and 19459 ng/mL and the “Brain product Ic concentration” value (15 min after dose, individual animals IV1-IV4, listed as product Ic, 40 mg/kg, 15 min) was 7100 ng/g and 7641 ng/g and 6481 ng/g. For the same molecule, the “Plasma product Ic concentration” value (0.5h after dose, individual animals IV1-IV4, 40 mg/kg, 30 min) was 10344 ng/mL and 9170 ng/mL and 11232 ng/mL, the “Brain product Ic concentration” value (0.5h after dose, individual animals IV1-IV4, listed as product Ic, 40 mg/kg, 30 min) was 6788 ng/g and 8317 ng/g and 6894 ng/g and the “Plasma product Ic concentration” value (0.75h after dose, individual animals IV1-IV4, 40 mg/kg, 45 min) was 10948 ng/mL and 8121 ng/mL and 10148 ng/mL. For the same molecule, the “Brain product Ic concentration” value (0.75h after dose, individual animals IV1-IV4, listed as product Ic, 40 mg/kg, 45 min) was 8086 ng/g and 7513 ng/g and 7272 ng/g, the “Plasma product Ic concentration” value (1h after dose, individual animals IV1-IV4, 40 mg/kg, 60 min) was 7423 ng/mL and 6693 ng/mL and 6079 ng/mL and the “Brain product Ic concentration” value (1h after dose, individual animals IV1-IV4, listed as product Ic, 40 mg/kg, 60 min) was 6424 ng/g and 8964 ng/g and 1747 ng/g and 7489 ng/g. The “Brain product Ic concentration” value (2h after dose, individual animals IV1-IV4, listed as product Ic, 40 mg/kg, 120 min) was 8418 ng/g and 6966 ng/g and 7017 ng/g, the “Plasma product Ic concentration” value (4h after dose, individual animals IV1-IV4, 40 mg/kg, 240 min) was 1110 ng/mL and 835 ng/mL and 830 ng/mL and the “Brain product Ic concentration” value (4h after dose, individual animals IV1-IV4, listed as product Ic, 40 mg/kg, 240 min) was 6939 ng/g and 6712 ng/g and 5459 ng/g. For the same molecule, the “Plasma product Ic concentration” value (6h after dose, individual animals IV1-IV4, 40 mg/kg, 360 min) was 316 ng/mL and 346 ng/mL and 336 ng/mL, the “Brain product Ic concentration” value (6h after dose, individual animals IV1-IV4, listed as product Ic, 40 mg/kg, 360 min) was 6688 ng/g and 7968 ng/g and 7350 ng/g and 3712 ng/g and the “Plasma product Ic concentration” value (8h after dose, individual animals IV1-IV4, 40 mg/kg, 480 min) was 199 ng/mL and 195 ng/mL and 154 ng/mL. The “Brain product Ic concentration” value (8h after dose, individual animals IV1-IV4, listed as product Ic, 40 mg/kg, 480 min) was 6977 ng/g and 8616 ng/g and 8342 ng/g, the “Plasma product Ic concentration” value (14h after dose, individual animals IV1-IV4, 40 mg/kg, 840 min) was 56 ng/mL and 50 ng/mL and 52 ng/mL and the “Brain product Ic concentration” value (14h after dose, individual animals IV1-IV4, listed as product Ic, 40 mg/kg, 840 min) was 10049 ng/g and 7595 ng/g and 9271 ng/g. The “Brain product Ic concentration” value (24 h after dose, individual animals IV1-IV4, listed as product Ic, 40 mg/kg, 1440 min) was 9842 ng/g and 7885 ng/g and 9052 ng/g, the “Plasma product Ic concentration” value (24 h after dose, individual animals IV1-IV4, values flagged blq (below limit of accurate quantification, 20 ng.ml^-1), 40 mg/kg, 1440 min) was 15(blq) ng.ml^-1 (2×) and 16(blq) ng.ml^-1 and the “Plasma product Ic concentration” value (48 h after dose, individual animals IV1-IV4, blq = below 20 ng.ml^-1, n.d. = not detected (≤ l.o.d. of 4 ng.ml^-1)) was 4(blq) ng.ml^-1. For the same molecule, the “Brain product Ic concentration” value (48 h after dose, individual animals IV1-IV4, listed as product Ic, 40 mg/kg, 2880 min) was 8541 ng/g and 7704 ng/g and 7986 ng/g, the “Brain product Ic concentration” value (72 h after dose, individual animals IV1-IV4, listed as product Ic, 40 mg/kg, 4320 min) was 5511 ng/g and 5692 ng/g and 3894 ng/g and the “Plasma product Ic concentration” value (time after dose printed as '-' (line between 1h and 4h), MEAN) was 4283 ng/mL. For the same molecule, the “Plasma product Ic concentration” value (time after dose printed as '-' (line between 1h and 4h), individual animals IV1-IV4, 40 mg/kg) was 4633 ng/mL and 4337 ng/mL and 4600 ng/mL and 3564 ng/mL, the concentration at 2 min (brain, iv, 40 mg/kg, 2 min after dose, MEAN, read-out: Brain product Ic concentration) was 7890 ng/g and the concentration at 2 min (brain, iv, 40 mg/kg, 2 min after dose, individual animals IV1-IV4, read-out: Brain product Ic concentration) was 6960 ng/g. It also gave a concentration at 5 min (brain, iv, 40 mg/kg, 5 min after dose, MEAN, read-out: Brain product Ic concentration) of 8170 ng/g, a concentration at 5 min (brain, iv, 40 mg/kg, 5 min after dose, individual animals IV1-IV4, read-out: Brain product Ic concentration) of 8340 ng/g and a concentration at 0.25 h (brain, iv, 40 mg/kg, 15 min after dose, MEAN, read-out: Brain product Ic concentration) of 6760 ng/g. It also gave a concentration at 0.25 h (brain, iv, 40 mg/kg, 15 min after dose, individual animals IV1-IV4, read-out: Brain product Ic concentration) of 5810 ng/g, a concentration at 0.5 h (brain, iv, 40 mg/kg, 0.5h after dose, MEAN, read-out: Brain product Ic concentration) of 7320 ng/g and a concentration at 0.5 h (brain, iv, 40 mg/kg, 0.5h after dose, individual animals IV1-IV4, read-out: Brain product Ic concentration) of 7260 ng/g. The concentration at 0.75 h (brain, iv, 40 mg/kg, 0.75h after dose, MEAN, read-out: Brain product Ic concentration) was 7640 ng/g, the concentration at 0.75 h (brain, iv, 40 mg/kg, 0.75h after dose, individual animals IV1-IV4, read-out: Brain product Ic concentration) was 7680 ng/g and the concentration at 1 h (brain, iv, 40 mg/kg, 1h after dose, MEAN, read-out: Brain product Ic concentration) was 6160 ng/g. It also gave a concentration at 2 h (brain, iv, 40 mg/kg, 2h after dose, MEAN, read-out: Brain product Ic concentration) of 7590 ng/g, a concentration at 2 h (brain, iv, 40 mg/kg, 2h after dose, individual animals IV1-IV4, read-out: Brain product Ic concentration) of 7960 ng/g and a concentration at 4 h (brain, iv, 40 mg/kg, 4h after dose, MEAN, read-out: Brain product Ic concentration) of 6760 ng/g.
